Measurements from ChEMBL document CHEMBL5375982, “How Modulator Binding at the Amyloidβ-γ-Secretase Interface Enhances Substrate Binding and Attenuates Membrane Distortion” (J Med Chem, 2023).
Active and inactive are the calls of the source. No cut-off for these calls is given here.

Columns and labels:
Assay type in all cases: cell-based
[1] = target: T1, Gamma-secretase (Homo sapiens) (UniProt Q96BI3+Q9NZ42+Q8WW43+P49768+Q92542+P49810); test: Modulation of gamma-secretase activity in HEK293T cells transfected with APP C99 K28E mutant assessed as […] in amyloidbeta37 to amyloidbeta40 ratio at 10 uM incubated for 24 to 30 hrs by ELISA; details: filed as modulator, time 24-30 hrs
[2] = target: T1, Gamma-secretase (Homo sapiens); test: Modulation of gamma-secretase activity in HEK293T cells transfected with APP C99 K28R mutant assessed as increase in processivity at 10 uM incubated for 24 to 30 hrs by ELISA; details: filed as modulator, time 24-30 hrs
[3] = target: T1, Gamma-secretase (Homo sapiens); test: Modulation of gamma-secretase activity in HEK293T cells transfected with APP C99 K28D mutant assessed as […] in amyloidbeta37 to amyloidbeta40 ratio at 10 uM incubated for 24 to 30 hrs by ELISA; details: filed as modulator, time 24-30 hrs
[4] = target: T1, Gamma-secretase (Homo sapiens); test: Modulation of gamma-secretase activity in HEK293T cells transfected with APP C99 K28D mutant assessed as increase in processivity at 10 uM incubated for 24 to 30 hrs by ELISA; details: time 24-30 hrs
[5] = target: T1, Gamma-secretase (Homo sapiens); test: Modulation of gamma-secretase activity in HEK293T cells transfected with wild type APP C99 assessed as increase in processivity at 10 uM incubated for 24 to 30 hrs by ELISA; details: filed as modulator, time 24-30 hrs
[6] = target: T1, Gamma-secretase (Homo sapiens); test: Modulation of gamma-secretase activity in HEK293T cells transfected with APP C99 K28E mutant assessed as increase in processivity at 10 uM incubated for 24 to 30 hrs by ELISA; details: time 24-30 hrs

Activity [1]: Active
Activity [2]: Active
Activity [3]: Active
Activity [4]: inactive
Activity [5]: Active
Activity [6]: inactive
Structure (SMILES): COc1cc(/C=C2\CCCN([C@@H](C)c3ccc(F)cc3)C2=O)ccc1-n1cnc(C)c1
